Results on 17 compounds are retold here after ChEMBL document CHEMBL1201862, “PubChem BioAssay data set” (2004).

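Briefly, cells in 96-well plates were exposed to five compound concentrations for 48 h, and endpoints were estimated by linear interpolation. GI50 marks 50% less growth.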 Calls of active or inactive are those of the source. Rule as the data show it: active = GI50 up to about 1.1 µM and inactive = higher.

Some test systems named below: RXF 393; SNB-75; ACHN; UACC-257; SW-620; SK-MEL-2; SF-268; HCT-116; IGROV-1; HT-29; SNB-19; K562; LOX IMVI.
Common to all, as to experiment: NCI anticancer screen, dose series, 48 h

Regarding `O=C1C=C(Nc2cc(Cl)ccc2Cl)c2ccccc2C1=O`, the GI50 was 55.5 µM (inactive) with RXF 393; 25.9 µM (inactive) in the test with SNB-75; 26.1 µM (inactive) in the test on ACHN; 24 µM (inactive) in the test on UACC-257; 29.3 µM (inactive) in the test on SW-620; 15.4 µM (inactive) in the test with SK-MEL-2. Also, the GI50 in the test on SF-268 is 64.3 µM (inactive); in the test with HCT-116 it was 34.1 µM (inactive); in the test with IGROV-1, 64.1 µM (inactive); in the test on HT-29 it was 86.9 µM (inactive); in the test with SNB-19 it was 46.2 µM (inactive); in the test on K562, 13.5 µM (inactive).

Regarding `COC12C=CC(CC1)c1c(O)ccc(O)c12` (stereo not given), the GI50 in the test with RXF 393 was > 79.6 µM (inactive); with SNB-75, 53.7 µM (inactive); in the test with ACHN it was 39.3 µM (inactive); in the test with UACC-257, > 84.9 µM (inactive); in the test with SW-620 it was 27.5 µM (inactive); in the test on SK-MEL-2 it was 42.9 µM (inactive). Moreover, the GI50 is > 31.6 µM (inactive) with SF-268; 40.7 µM (inactive) in the test on HCT-116; > 100 µM (inactive) in the test with IGROV-1; 64.9 µM (inactive) in the test on HT-29; > 70.6 µM (inactive) in the test on SNB-19; 22.6 µM (inactive) in the test with K562.

`COc1cc(C(C#N)NNC(=O)Cc2ccccc2)cc(OC)c1OC` (stereo not given): the GI50 is > 100 µM (inactive) in the test with RXF 393; 35.5 µM (inactive) in the test with SNB-75; > 100 µM (inactive) in the test with ACHN; > 100 µM (inactive) in the test with UACC-257; > 100 µM (inactive) in the test on LOX IMVI; > 100 µM (inactive) with SW-620. Further, the GI50 with SK-MEL-2, in the test with SF-268, in the test with HCT-116, with IGROV-1, in the test on HT-29 and with K562 was > 100 µM (inactive) throughout.

As to `[O-][Cl+3]([O-])([O-])[O-].c1ccc(-c2[o+]c(-c3ccccc3)c(-c3ccccc3)c(-c3ccccc3)c2-c2ccccc2)cc1`, the GI50 in the test on RXF 393 is 12 µM (inactive); in the test with SNB-75 it was > 100 µM (inactive); in the test with ACHN it was > 100 µM (inactive); with UACC-257, > 100 µM (inactive); in the test on LOX IMVI, > 100 µM (inactive); in the test with SW-620, > 100 µM (inactive). In addition, the GI50 with SK-MEL-2, with SF-268, in the test on HCT-116, in the test with IGROV-1 and in the test on HT-29 was > 100 µM (inactive) each time.

On to `C/C(=N\NC(N)=S)c1ccc(C)c(C)c1`, for which the GI50 is 23 µM (inactive) with RXF 393; 40.3 µM (inactive) in the test with SNB-75; 59.2 µM (inactive) in the test with ACHN; 44.2 µM (inactive) in the test on UACC-257; > 100 µM (inactive) in the test with LOX IMVI; 52.8 µM (inactive) in the test on SW-620. For the same compound, the GI50 in the test with SK-MEL-2 is 45 µM (inactive); with SF-268 it was > 100 µM (inactive); in the test on HCT-116 it was > 100 µM (inactive); in the test with IGROV-1 it was 25.4 µM (inactive); in the test on HT-29, 19.4 µM (inactive); in the test on K562, 36.6 µM (inactive).

Regarding `N#CCCN(CCC#N)c1ccc(/C=C2\N=C(c3cc([N+](=O)[O-])ccc3Cl)OC2=O)cc1`, the GI50 was 23.9 µM (inactive) in the test on SNB-75; > 100 µM (inactive) in the test with ACHN; 20 µM (inactive) in the test with UACC-257; 23.7 µM (inactive) with LOX IMVI; 68.4 µM (inactive) in the test on SW-620; 20 µM (inactive) in the test on SK-MEL-2. Moreover, the GI50 in the test with SF-268 is 45.1 µM (inactive); in the test with HCT-116 it was > 100 µM (inactive); in the test with IGROV-1, > 100 µM (inactive); with HT-29, > 100 µM (inactive); in the test with SNB-19 it was 25.9 µM (inactive); with K562, 18.2 µM (inactive).

Consider `C=CC/N=C1\N=C(C)C(C(=O)OCC)S1` (stereo not given), for which the GI50 in the test on RXF 393, in the test on SNB-75, in the test with ACHN, with UACC-257, in the test on LOX IMVI and in the test on SW-620 was > 100 µM (inactive) in each case. Also, the GI50 with SK-MEL-2, in the test with SF-268, in the test with HCT-116, in the test with IGROV-1, with HT-29 and in the test with SNB-19 was > 100 µM (inactive) in each case. In addition, the GI50 in the test on K562 was > 100 µM (inactive).

Turning to `CC1(C)CC(/C=C2/OC(=O)c3ccccc32)=C(C#N)C(=O)O1`, the GI50 in the test with SNB-75, in the test with ACHN, with UACC-257, in the test with LOX IMVI, in the test with SW-620 and in the test with SK-MEL-2 was > 100 µM (inactive) in each case. Moreover, the GI50 in the test with SF-268, in the test on HCT-116, with IGROV-1, with HT-29, in the test with SNB-19 and in the test with K562 was > 100 µM (inactive) in each case.

`O=C(O)C1=C(Cl)c2ccccc2S1(=O)=O`: the GI50 with RXF 393, with SNB-75, in the test on UACC-257, with LOX IMVI, with SW-620 and with SK-MEL-2 was > 100 µM (inactive) each time. Further, the GI50 with SF-268, with IGROV-1, in the test on SNB-19 and in the test with K562 was > 100 µM (inactive) throughout.

As for `CC(=O)Oc1cc(OC(C)=O)c(OC(C)=O)c2c1CC1C(=O)C3(CCc4ccccc43)C(=O)C1C2` (stereo not given), the GI50 in the test on RXF 393 is 15 µM (inactive); in the test on SNB-75, 0.912 µM (active); with ACHN, 13.4 µM (inactive); with LOX IMVI, 6.67 µM (inactive); in the test with SW-620, 17.9 µM (inactive); with SF-268, > 10 µM (inactive). In addition, the GI50 was 19.8 µM (inactive) in the test with IGROV-1, 20.7 µM (inactive) in the test with HT-29 and 9.2 µM (inactive) with K562.

In the case of `O=C(O)CCCc1cc2c(s1)-c1cccc3cccc-2c13`, the GI50 in the test with SNB-75 is 50.4 µM (inactive); with ACHN it was 22.4 µM (inactive); in the test on UACC-257 it was 22.6 µM (inactive); in the test on LOX IMVI, 21.9 µM (inactive); with SW-620, 36.2 µM (inactive); in the test on SK-MEL-2 it was 20.4 µM (inactive). In addition, the GI50 with SF-268 was 39.6 µM (inactive); with HCT-116 it was 34.8 µM (inactive); with IGROV-1 it was 47.3 µM (inactive); with HT-29, > 100 µM (inactive); in the test with SNB-19, 27.4 µM (inactive); in the test on K562, 31.9 µM (inactive).

On to `COc1ccc(/C(=N\NC(=O)C(N)=O)C(c2ccc(OC)cc2)C2(O)C(=O)Nc3c(Cl)cccc32)cc1` (stereo not given), for which the GI50 is > 100 µM (inactive) with RXF 393; > 100 µM (inactive) with SNB-75; > 100 µM (inactive) with ACHN; > 100 µM (inactive) in the test on UACC-257; 58.6 µM (inactive) in the test with LOX IMVI; > 100 µM (inactive) in the test with SW-620. Also, the GI50 in the test with SK-MEL-2, in the test with SF-268, in the test on HCT-116, with IGROV-1, in the test with HT-29 and in the test with SNB-19 was > 100 µM (inactive) in each case.

With `NC(=S)N/N=C/c1nccc2ccccc12`, the GI50 with RXF 393 is 0.257 µM (active); in the test on SNB-75, 0.578 µM (active); in the test with ACHN, 0.0254 µM (active); with LOX IMVI it was 0.322 µM (active); in the test with SW-620 it was 0.802 µM (active); with SK-MEL-2 it was 2.7 µM (inactive). Moreover, the GI50 in the test with SF-268 was 0.377 µM (active); with HCT-116, 0.914 µM (active); with IGROV-1, 0.762 µM (active); in the test on HT-29, 0.731 µM (active); in the test with SNB-19 it was 0.948 µM (active); with K562 it was 2.73 µM (inactive).

As to `CN(C(=O)c1ccc([N+](=O)[O-])cc1)c1ccccc1`, the GI50 is 21.6 µM (inactive) with RXF 393; 87.9 µM (inactive) in the test on SNB-75; > 100 µM (inactive) in the test on ACHN; > 100 µM (inactive) with UACC-257; > 100 µM (inactive) with LOX IMVI; > 100 µM (inactive) in the test on SW-620. The GI50 was > 100 µM (inactive) in the test on SF-268; > 100 µM (inactive) in the test with HCT-116; > 100 µM (inactive) in the test with IGROV-1; > 100 µM (inactive) in the test on HT-29; > 100 µM (inactive) in the test with SNB-19; > 10 µM (inactive) in the test on K562.

For the compound `COc1cc(Nc2nc3ccccc3nc2-c2cccs2)cc(OC)c1OC`, the GI50 is 16.6 µM (inactive) with RXF 393; 40.6 µM (inactive) in the test with SNB-75; 16.4 µM (inactive) in the test on ACHN; 28.8 µM (inactive) in the test with UACC-257; 45.6 µM (inactive) in the test with LOX IMVI; 50.4 µM (inactive) in the test with SW-620. The GI50 is 85.3 µM (inactive) with SK-MEL-2; 25.8 µM (inactive) in the test with SF-268; 28.1 µM (inactive) in the test on HCT-116; 41.7 µM (inactive) in the test with HT-29; 56.9 µM (inactive) in the test on SNB-19.

As to `COc1cc2c(c(O)c1C)C(=O)CC(c1ccccc1)O2` (stereo not given), the GI50 was 28.8 µM (inactive) in the test on SNB-75; 43.7 µM (inactive) with ACHN; 38.5 µM (inactive) in the test with UACC-257; > 10 µM (inactive) in the test with LOX IMVI; > 10 µM (inactive) in the test with SW-620; 24.9 µM (inactive) in the test on SK-MEL-2. Besides, the GI50 in the test on SF-268 is > 100 µM (inactive); in the test on HCT-116 it was 31.7 µM (inactive); in the test with IGROV-1, 61.9 µM (inactive); in the test on HT-29, > 10 µM (inactive); in the test with K562, 50.2 µM (inactive).

Consider `O=C1C(C2=[N+]([O-])c3ccccc3C2=O)=[N+]([O-])c2ccccc21`, for which the GI50 was 31.9 µM (inactive) in the test with RXF 393; 35.1 µM (inactive) in the test with SNB-75; 24.8 µM (inactive) in the test with ACHN; 15.6 µM (inactive) with LOX IMVI; 21.8 µM (inactive) in the test with SW-620; 28.2 µM (inactive) in the test with SF-268. In addition, the GI50 in the test on IGROV-1 was 32.1 µM (inactive); in the test on HT-29, 32.8 µM (inactive); in the test on SNB-19 it was 46.7 µM (inactive); in the test on K562, 19.7 µM (inactive).
